Results on 5 molecules are retold here after paper PMC8717366, “Synthesis and Pharmacological Characterization of Visabron, a Backbone Cyclic Peptide Dual Antagonist of α4β1 (VLA-4)/α9β1 Integrin for Therapy of Multiple Sclerosis” (JACS Au, 2021).

The structures appear in SMILES notation. Where two headings read alike, the source gives them in different places. Numbered stars: 1 amine (or outer) side, 2 acyl side, 3 side chain; on linkers, the order of the positions; unused ones are H or OH. Bridge positions count the residues as written; N and C are the ends. Square brackets hold non-standard residues; d marks the D form. Peptide text beside a SMILES is read from it. N(6-aminohexyl)Gly = O=C(CN(CCCCCCN[*:3])[*:1])[*:2]; CO = O=C([*:1])[*:2]; Nlys = NCCCCNCC(=O)O

One experiment deals with T1, α1β1-collagen IV (Homo sapiens, UniProt P05556+P56199).
T1 construct: expressed in transfected cells; host or cells: K562 transfected with α1 integrin (gift of Dr. M. Hemler)
T1 sequence (P56199 29-1179): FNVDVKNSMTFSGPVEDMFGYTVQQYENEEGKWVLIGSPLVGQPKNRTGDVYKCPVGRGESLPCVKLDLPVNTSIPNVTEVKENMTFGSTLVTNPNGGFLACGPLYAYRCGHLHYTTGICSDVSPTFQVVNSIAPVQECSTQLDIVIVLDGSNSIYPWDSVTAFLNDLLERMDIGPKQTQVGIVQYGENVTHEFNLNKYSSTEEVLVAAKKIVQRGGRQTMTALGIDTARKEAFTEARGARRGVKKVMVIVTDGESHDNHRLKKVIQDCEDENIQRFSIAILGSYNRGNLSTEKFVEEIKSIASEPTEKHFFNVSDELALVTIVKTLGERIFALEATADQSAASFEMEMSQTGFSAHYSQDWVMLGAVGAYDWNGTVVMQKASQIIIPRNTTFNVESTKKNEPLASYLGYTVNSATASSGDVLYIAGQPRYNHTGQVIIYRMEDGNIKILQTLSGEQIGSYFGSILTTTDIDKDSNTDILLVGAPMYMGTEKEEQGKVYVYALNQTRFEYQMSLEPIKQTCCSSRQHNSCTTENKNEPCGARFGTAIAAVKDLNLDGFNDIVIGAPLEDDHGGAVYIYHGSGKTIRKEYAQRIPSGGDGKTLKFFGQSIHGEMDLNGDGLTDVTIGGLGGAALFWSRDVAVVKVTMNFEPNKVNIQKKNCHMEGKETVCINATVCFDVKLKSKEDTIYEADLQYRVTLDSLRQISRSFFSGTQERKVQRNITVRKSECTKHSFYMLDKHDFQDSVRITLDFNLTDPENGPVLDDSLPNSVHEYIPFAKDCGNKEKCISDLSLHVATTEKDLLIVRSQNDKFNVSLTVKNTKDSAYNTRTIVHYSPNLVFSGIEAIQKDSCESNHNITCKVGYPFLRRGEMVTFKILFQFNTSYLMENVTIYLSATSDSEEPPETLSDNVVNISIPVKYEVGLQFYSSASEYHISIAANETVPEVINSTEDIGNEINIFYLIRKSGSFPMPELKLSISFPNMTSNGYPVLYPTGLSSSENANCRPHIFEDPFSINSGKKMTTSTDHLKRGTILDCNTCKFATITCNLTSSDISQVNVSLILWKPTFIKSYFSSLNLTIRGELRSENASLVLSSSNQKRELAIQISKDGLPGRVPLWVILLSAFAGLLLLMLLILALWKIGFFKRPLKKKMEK
T1 sequence (P05556 21-798): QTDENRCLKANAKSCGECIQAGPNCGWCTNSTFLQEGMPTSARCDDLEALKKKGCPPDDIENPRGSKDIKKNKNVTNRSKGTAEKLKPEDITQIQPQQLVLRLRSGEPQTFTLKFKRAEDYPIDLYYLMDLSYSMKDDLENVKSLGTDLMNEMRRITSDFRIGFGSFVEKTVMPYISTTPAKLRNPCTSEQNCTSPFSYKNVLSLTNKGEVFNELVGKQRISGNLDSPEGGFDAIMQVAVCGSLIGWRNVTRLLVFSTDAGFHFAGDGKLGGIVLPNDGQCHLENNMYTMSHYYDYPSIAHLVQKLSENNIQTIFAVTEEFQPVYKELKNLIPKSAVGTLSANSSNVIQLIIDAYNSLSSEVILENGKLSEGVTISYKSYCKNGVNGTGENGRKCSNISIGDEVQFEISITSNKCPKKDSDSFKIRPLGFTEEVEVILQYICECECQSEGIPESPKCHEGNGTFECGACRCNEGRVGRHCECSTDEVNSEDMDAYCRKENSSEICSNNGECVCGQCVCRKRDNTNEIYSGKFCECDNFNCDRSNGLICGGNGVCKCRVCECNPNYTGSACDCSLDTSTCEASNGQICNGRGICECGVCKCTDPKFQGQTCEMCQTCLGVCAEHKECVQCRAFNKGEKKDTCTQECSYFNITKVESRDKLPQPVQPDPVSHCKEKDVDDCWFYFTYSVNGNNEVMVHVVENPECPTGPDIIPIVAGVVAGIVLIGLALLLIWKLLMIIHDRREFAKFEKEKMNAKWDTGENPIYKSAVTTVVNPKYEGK
The experiment in a line: Adhesion of α1-K562 overexpressor cells to immobilized collagen IV. The format is cell-based. As to the method: (§1) Cell adhesion assay was carried out as previously described[47] with minor modifications. The day before the experiment, each well was coated with VCAM-1 (3 mg/mL) immobilized on the 96-well plate in PBS by overnight incubation at 4 °C. Thereafter, nonspecific binding was blocked by incubating the wells with 1% (w/v) bovine serum albumin (BSA) in Hank’s Balanced Salt Solution (HBSS) containing 5 mM MgCl2 at room temperature for 1 h before use. The cells were labeled by incubation with 12.5 μM 5-chloromethylfluorescein diacetate (CMFDA) in HBSS without 1% BSA at 37 °C for 30 min. The labeled cells were then centrifuged at 1000 rpm and washed twice with HBSS containing 1% BSA to remove excess CMFDA. Labeled cells (about 1 × 10^5 cells/well) were plated on each well in the presence or absence of visabrons and incubated at 37 °C for 60 min. Unbound cells were removed by washing the wells three times with 1% (w/v) BSA in HBSS, and bound cells were lysed by the addition of 0.5% Triton X-100 (diluted in DDW). The fluorescence in each well was quantified with a SPECTRAFluor Plus plate reader (Tecan), at λex = 485 nm and λem = 530 nm. To determine the number of adhered cells from the fluorescence values, a standard curve was generated by serial dilution of known numbers of CMFDA-labeled cells. […]
(§2) Table S6. TMLD- linear peptides inhibition of adhesion of integrin expressing cells to the respective immobilized ligands a a The cells were incubated for 30 min at 37 °C with the cells (1 x 105) in the 96 -well plate, previously covered with extracellular matrix ligand, in 100 µL of HBSS containing calcium and magnesium. After being washed with the same buffer, the adhered cells were lysed by Triton X-100, and the plate was read using Tecan spectrofluorimeter. The inhibitory dose 50% (IC 50) values represent ing mean ± standard deviatio ns (n=6) were calculated from dose response curves. bJurkat cells,VCAM -1; c α9-SW480 overexpressing cells, VCAM-1; d α1-K562 overexpressing cells, collagen IV ;e α2-K562 overexpressing cells, collagen I; f K562 wild type

For another experiment, the target named is T2, α2β1-collagen I (Homo sapiens, UniProt P05556+P17301).
T2 construct: expressed in transfected cells; host or cells: K562 transfected with α2 integrin (gift of Dr. M. Hemler)
T2 sequence (P17301 30-1181): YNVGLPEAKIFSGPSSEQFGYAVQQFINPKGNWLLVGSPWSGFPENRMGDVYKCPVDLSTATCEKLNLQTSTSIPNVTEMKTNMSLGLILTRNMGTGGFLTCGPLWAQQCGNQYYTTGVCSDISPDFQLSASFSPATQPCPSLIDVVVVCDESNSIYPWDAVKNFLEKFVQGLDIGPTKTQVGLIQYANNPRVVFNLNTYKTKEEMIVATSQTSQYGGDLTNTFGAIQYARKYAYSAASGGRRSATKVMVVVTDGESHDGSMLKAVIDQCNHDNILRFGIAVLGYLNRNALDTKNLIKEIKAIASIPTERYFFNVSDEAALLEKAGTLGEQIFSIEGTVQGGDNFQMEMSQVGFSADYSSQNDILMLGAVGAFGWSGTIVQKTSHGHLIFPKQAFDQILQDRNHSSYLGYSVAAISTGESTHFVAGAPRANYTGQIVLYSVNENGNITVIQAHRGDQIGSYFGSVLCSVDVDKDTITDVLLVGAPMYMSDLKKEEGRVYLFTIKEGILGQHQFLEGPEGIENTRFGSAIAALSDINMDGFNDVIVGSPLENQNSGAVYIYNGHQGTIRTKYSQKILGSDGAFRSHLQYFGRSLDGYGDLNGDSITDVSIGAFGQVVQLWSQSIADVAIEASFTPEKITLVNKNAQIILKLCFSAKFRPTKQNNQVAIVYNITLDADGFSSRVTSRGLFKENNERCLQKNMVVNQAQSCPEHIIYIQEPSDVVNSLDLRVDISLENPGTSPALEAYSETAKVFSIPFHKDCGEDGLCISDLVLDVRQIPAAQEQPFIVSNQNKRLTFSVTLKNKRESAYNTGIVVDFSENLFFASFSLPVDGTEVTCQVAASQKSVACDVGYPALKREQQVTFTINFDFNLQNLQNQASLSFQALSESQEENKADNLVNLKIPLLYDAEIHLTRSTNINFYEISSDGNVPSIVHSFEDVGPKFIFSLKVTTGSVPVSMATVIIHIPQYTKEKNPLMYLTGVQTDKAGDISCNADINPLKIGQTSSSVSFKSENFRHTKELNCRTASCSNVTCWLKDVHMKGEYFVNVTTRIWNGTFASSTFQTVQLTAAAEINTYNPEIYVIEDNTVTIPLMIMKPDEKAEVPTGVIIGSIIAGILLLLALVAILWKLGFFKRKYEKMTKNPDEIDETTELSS
T2 sequence (P05556 21-798): as the sequence (P05556 21-798) above
Put plainly: Adhesion of α2-K562 overexpressor cells to immobilized collagen I. The format is cell-based. Here is the method: as §1, §2

The target of experiment [1] is T3, α4β1 (Jurkat lymphocytes-VCAM-1) (Homo sapiens, UniProt P05556+P13612).
T3 construct: host or cells: Jurkat (untreated or TNFα-treated)
T3 sequence (P13612 34-1032): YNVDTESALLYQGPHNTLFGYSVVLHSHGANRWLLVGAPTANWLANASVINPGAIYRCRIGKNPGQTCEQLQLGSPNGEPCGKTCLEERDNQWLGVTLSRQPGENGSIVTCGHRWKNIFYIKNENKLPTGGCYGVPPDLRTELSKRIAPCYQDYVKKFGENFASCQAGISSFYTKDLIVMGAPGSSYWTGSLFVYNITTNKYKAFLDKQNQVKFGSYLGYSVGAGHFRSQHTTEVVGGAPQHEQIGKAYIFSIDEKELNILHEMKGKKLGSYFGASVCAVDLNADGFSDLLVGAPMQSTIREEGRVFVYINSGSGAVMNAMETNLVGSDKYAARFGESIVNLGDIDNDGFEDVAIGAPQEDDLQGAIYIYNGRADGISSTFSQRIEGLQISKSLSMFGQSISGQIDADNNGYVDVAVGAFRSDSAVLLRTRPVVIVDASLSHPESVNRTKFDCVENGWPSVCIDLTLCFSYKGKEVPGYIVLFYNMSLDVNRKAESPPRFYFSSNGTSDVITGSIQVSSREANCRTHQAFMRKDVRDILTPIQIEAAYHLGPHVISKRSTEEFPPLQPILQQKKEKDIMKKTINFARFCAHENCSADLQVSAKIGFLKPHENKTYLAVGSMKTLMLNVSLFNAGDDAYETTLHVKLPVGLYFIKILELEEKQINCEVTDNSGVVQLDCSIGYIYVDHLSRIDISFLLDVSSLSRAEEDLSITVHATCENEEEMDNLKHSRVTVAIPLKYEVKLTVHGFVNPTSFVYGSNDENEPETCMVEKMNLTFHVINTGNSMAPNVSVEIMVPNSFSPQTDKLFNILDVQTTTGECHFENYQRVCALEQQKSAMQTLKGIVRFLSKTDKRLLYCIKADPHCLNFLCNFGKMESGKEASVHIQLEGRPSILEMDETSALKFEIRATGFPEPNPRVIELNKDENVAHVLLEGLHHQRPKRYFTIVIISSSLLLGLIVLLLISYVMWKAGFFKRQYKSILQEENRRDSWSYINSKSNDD
T3 sequence (P05556 21-798): as the sequence (P05556 21-798) above
Put plainly: Adhesion of Jurkat lymphocytes to immobilized VCAM-1. The experiment is classed as cell-based. Here is the method:
as §1, §2

The next experiment concerns the target T4, α9β1 (Homo sapiens, UniProt P05556+Q13797).
T4 construct: generated by transfection with full-length α9 expression plasmid pcDNAIneoa9; expressed in transfected cells; host or cells: SW480 transfected with pcDNAIneoa9
Put plainly: Adhesion of α9-SW480 overexpressing cells to VCAM-1. Conditions: n=6, Table S6, read-out: IC50 α9β1 (linear peptides). The format is cell-based. Here is the method:
as §2, with “type […]” for “type”
(1 picture or pasted object on this page, not shown here)

The target in a further experiment is T5, α5β1-fibronectin (Homo sapiens, UniProt P05556+P08648).
T5 construct: host or cells: K562 wild type
The experiment in a line: Adhesion of wild-type K562 cells to immobilized fibronectin. The format is cell-based. Here is the method:
as §1, §2

The next experiment deals with α9β1-VCAM-1 Fc chimera (Homo sapiens, UniProt P05556+Q13797). The experiment in a line: ELISA binding assay, α9β1 to VCAM-1 Fc chimera. Background: In an ELISA, binding on a coated surface is turned into a signal by an enzyme label.
A further experiment has as its target T6, α4β1-VCAM-1 Fc chimera (Homo sapiens, UniProt P05556+P13612).
T6 construct: purchased R&D Systems Co (Minneapolis, MN)
Put plainly: ELISA solid-phase ligand-receptor binding, integrin α4β1 to VCAM-1 Fc chimera. Here is the method: (§3) Recombinant human VCAM-1 and MadCAM-1 (3 mg/mL in phosphate-buffered saline containing divalent cations), were immobilized on the wells of a 96-well ELISA plate (Dynatech Immulon) by overnight incubation at 4 °C. After washing with HBSST (Hanks’ Balanced Salt solution containing calcium and magnesium and 0.05% Tween-20) the plates were blocked with 5% BSA in HBSST by incubation at 37 °C for 1 h. The plates were washed with HBSST, and recombinant human integrin α4β1 or α4β7 (3 mg/mL) was added in the presence or absence of competitor cyclic peptides, disintegrins, or monoclonal anti-integrin antibodies dissolved in HBSS containing 1% BSA. The plates were thereafter incubated at 30 °C for 3 h, as time-binding had reached a plateau, and then washed 3 times with HBSST. Bound integrins were quantitated using primary anti-integrin polyclonal and monoclonal antibodies at a concentration of 0.5 mg/mL in HBSST containing 1% BSA, and incubated at 37 °C for 1 h. The plates were washed 3 times with HBSST and secondary antibodies- alkaline phosphatase (AP) conjugated (Sigma Co.) were added at dilution 1:1000 and incubated at 37 °C for 1 h. Thereafter, the plates were washed 3 times with HBSST and twice with HBSS and the alkaline phosphatase substrate 4-nitrophenyl phosphate was added to the wells for 30 min. The plates were read using Tecan Spectrophotometer at 405 nm. The level of nonspecific binding was measured in each experiment by determining the level of binding to wells coated with BSA alone.

The target of another experiment is T7, α4β7-MAdCAM-1 Fc chimera (Homo sapiens, UniProt P13612+P26010).
T7 construct: purchased R&D Systems Co (Minneapolis, MN)
Put plainly: ELISA solid-phase ligand-receptor binding, integrin α4β7 to MAdCAM-1 Fc chimera. Here is the method: as §3

Experiment [2] relates to U937 macrophages-VCAM-1 (α4β1, αMβ2, α3β1, α6β1). The experiment in a line: Adhesion of U937 macrophages to immobilized VCAM-1. The format is cell-based, human. Here is the method:
Cell adhesion assay was carried out as previously described[47] with minor modifications. The day before the experiment, each well was coated with VCAM-1 (3 mg/mL) immobilized on the 96-well plate in PBS by overnight incubation at 4 °C. Thereafter, nonspecific binding was blocked by incubating the wells with 1% (w/v) bovine serum albumin (BSA) in Hank’s Balanced Salt Solution (HBSS) containing 5 mM MgCl2 at room temperature for 1 h before use. The cells were labeled by incubation with 12.5 μM 5-chloromethylfluorescein diacetate (CMFDA) in HBSS without 1% BSA at 37 °C for 30 min. The labeled cells were then centrifuged at 1000 rpm and washed twice with HBSS containing 1% BSA to remove excess CMFDA. Labeled cells (about 1 × 10^5 cells/well) were plated on each well in the presence or absence of visabrons and incubated at 37 °C for 60 min. Unbound cells were removed by washing the wells three times with 1% (w/v) BSA in HBSS, and bound cells were lysed by the addition of 0.5% Triton X-100 (diluted in DDW). The fluorescence in each well was quantified with a SPECTRAFluor Plus plate reader (Tecan), at λex = 485 nm and λem = 530 nm. To determine the number of adhered cells from the fluorescence values, a standard curve was generated by serial dilution of known numbers of CMFDA-labeled cells.

[3] abbreviates: α1-K562 overexpressing cells, collagen IV, n=6, Table S6, read-out: IC50 α1β1 (linear peptides).
The mark [4] stands for this setting: α2-K562 overexpressing cells, collagen I, n=6, Table S6, read-out: IC50 α2β1 (linear peptides).
The mark [5] stands for this setting: Jurkat cells, VCAM-1, n=6, Table S6, read-out: IC50 α4β1 (linear peptides).
Where [6] appears, read: K562 wild type cells, fibronectin, n=6, Table S6, read-out: IC50 α5β1 (linear peptides).
[7] abbreviates: α1-K562 overexpressed cells, 30 min at 37 °C, read-out: IC50 α1β1-collagen IV.
[8] abbreviates: α2-K562 overexpressed cells, 30 min at 37 °C, read-out: IC50 α2β1-collagen I.
Where [9] appears, read: Jurkat treated with TNF-α (10 ng/mL) for 24 h, read-out: IC50 Jurkat lymphocytes-VACAM-1 TNFα.
[10] abbreviates: untreated Jurkat lymphocytes (α4β1), read-out: IC50 Jurkat lymphocytes-VACAM-1 control.
[11] abbreviates: wild-type K562 (α5β1), 30 min at 37 °C, read-out: IC50 α5β1-fibronectin.

As usually defined, the IC50 is the midpoint of a concentration-inhibition curve. As for `CSCC[C@H](NC(=O)[C@@H](NC(=O)[C@H](CCCNC(=N)N)NC(=O)[C@@H](N)CCCCN)[C@@H](C)O)C(=O)N[C@@H](CC(C)C)C(=O)N[C@@H](CC(=O)O)C(=O)NCC(=O)N[C@@H](CC(C)C)C(N)=O` [sequence 5, KRTMLDGL] (H-KRTMLDGL-NH2; N-terminus and C-terminus assumed), the IC50 was greater than 10000 µM on α1β1-collagen IV (setting [3]); greater than 10000 µM on α2β1-collagen I (setting [4]); 1310 ± 95 µM in experiment [1] (setting [5]); 1260 ± 80 µM at α9β1; greater than 10000 µM on α5β1-fibronectin (setting [6]).

`CSCC[C@@H]1NC(=O)[C@H]([C@@H](C)O)NC(=O)CN(C(=O)[C@@H](N)CCCNC(=N)N)CCCCNC(=O)NCCCCN(CC(=O)N[C@@H](CC(C)C)C(N)=O)C(=O)[C@H](CC(=O)O)NC(=O)[C@H](CC(C)C)NC1=O` [Arg-visabron c (4–4)] (H-R[Nlys]TMLD[Nlys]L-NH2; linker 2-7 via CO; N-terminus assumed): the 50% inhibitory concentration (IC50) at α1β1-collagen IV (setting [7]) was greater than 10000 µM; on α9β1-VCAM-1 Fc chimera it was greater than 10000 µM; at α4β1-VCAM-1 Fc chimera, greater than 10000 µM; at α2β1-collagen I (setting [8]) it was greater than 10000 µM; in experiment [1] (setting [9]), greater than 5000 µM; in experiment [1] (setting [10]) it was greater than 5000 µM. Besides, the concentration for half-maximal inhibition (IC50) on α5β1-fibronectin (setting [11]) was greater than 10000 µM.

With `CSCC[C@H](NC(=O)[C@H](C)NC(=O)[C@H](CCCNC(=N)N)NC(=O)[C@H](CCCCN)NC(=O)[C@@H](N)CS)C(=O)N[C@@H](CC(C)C)C(=O)N[C@@H](CC(=O)O)C(=O)NCC(=O)N[C@@H](CC(C)C)C(=O)N[C@@H](CC(N)=O)C(=O)N[C@@H](CC(=O)O)C(=O)N[C@@H](Cc1ccc(O)cc1)C(=O)N[C@@H](CS)C(N)=O` [sequence 4, CKRAMLDGLNDYC] (H-CKRAMLDGLNDYC-NH2; N-terminus and C-terminus assumed), the IC50 is greater than 10000 µM at α1β1-collagen IV (setting [3]); greater than 10000 µM on α2β1-collagen I (setting [4]); 3910 ± 80 µM in experiment [1] (setting [5]); 2840 ± 115 µM at α9β1; greater than 10000 µM at α5β1-fibronectin (setting [6]).

`CSCC[C@H](NC(=O)[C@@H](NC(=O)[C@H](CCCNC(=N)N)NC(=O)[C@H](CCCCN)NC(=O)[C@@H](N)CS)[C@@H](C)O)C(=O)N[C@@H](CC(C)C)C(=O)N[C@@H](CC(=O)O)C(=O)NCC(=O)N[C@@H](CC(C)C)C(=O)N[C@@H](CC(N)=O)C(=O)N[C@@H](CC(=O)O)C(=O)N[C@@H](Cc1ccc(O)cc1)C(=O)N[C@@H](CS)C(N)=O` [sequence 3, CKRTMLDGLNDYC] (H-CKRTMLDGLNDYC-NH2; N-terminus and C-terminus assumed): the concentration for half-maximal inhibition (IC50) on α1β1-collagen IV (setting [3]) was greater than 10000 µM; on α2β1-collagen I (setting [4]), greater than 10000 µM; in [1] (setting [5]) it was 1450 ± 105 µM; at α9β1 it was 1250 ± 95 µM; on α5β1-fibronectin (setting [6]), greater than 10000 µM.

Turning to `CSCC[C@@H]1NC(=O)[C@H]([C@@H](C)O)NC(=O)CN(C(=O)[C@@H](N)CCCCN)CCCCCCNC(=O)NCCCCCCN(CC(=O)N[C@@H](CC(C)C)C(N)=O)C(=O)[C@H](CC(=O)O)NC(=O)[C@H](CC(C)C)NC1=O` [visabron c (6–6)] (H-K[N(6-aminohexyl)Gly]TMLD[N(6-aminohexyl)Gly]L-NH2; linker 2-7 via CO), the 50% inhibitory concentration (IC50) was greater than 10000 µM at α1β1-collagen IV (setting [7]); 0.9 µM on α9β1-VCAM-1 Fc chimera; 0.7 µM on α4β1-VCAM-1 Fc chimera; greater than 10000 µM on α2β1-collagen I (setting [8]); greater than 500 µM at α4β7-MAdCAM-1 Fc chimera; 4 µM in experiment [1] (setting [9]). Besides, the IC50 is 5 µM in [1] (setting [10]); 15 µM in experiment [2] (U937 treated with PMA (10 ng/mL) for 24 h, read-out: IC50 U937 macrophages-VCAM-1 PMA); 20 µM in experiment [2] (untreated U937, read-out: IC50 U937 macrophages-VCAM-1 control); greater than 10000 µM on α5β1-fibronectin (setting [11]).
